# Read-outs that look alike come from different tables or passages of the source.
# What was measured:
# [1] = tested on: bleeding from the amputated tail end; test: hemostatic effect, Motohashi et al. model: time until bleeding from amputated mouse tail tip in water is completely stopped; assay type: in vivo; conditions: mice, tail tip amputation
# [2] = tested on: pulmonary hemorrhage; test: pulmonary hemorrhage in mice under reduced pressure (scoring method; vascular stabilizing effect); assay type: in vivo; conditions: Mus musculus, reduced pressure of 50 ± 0.5 mm Hg/15 sec
smiles,measurement,setting,value
CN1C2=CC(=O)C(=NNC(N)=O)C=C2CC1S(=O)(=O)O (stereo not drawn) [Carbazochrome sodium sulfonate],ED50,"[1]; ip, read-out: ED50 i.p. (hemostatic effect)",5.4 mg/kg
same,ED50,"[1]; iv, read-out: ED50 i.v. (hemostatic effect)",3.6 mg/kg
same,ED50,"[1]; po, read-out: ED50 p.o. (hemostatic effect)",36 mg/kg
same,ED50,"[2]; ip, read-out: ED50 i.p. (pulmonary hemorrhage)",112 mg/kg
same,ED50,"[2]; iv, read-out: ED50 i.v. (pulmonary hemorrhage)",80 mg/kg
same,ED50,"[2]; po, read-out: ED50 p.o. (pulmonary hemorrhage)",400 mg/kg

# Reference: US4112218A, “Method of preparing sterol glycosides from plants” (Nippon Shinyaku Co., Ltd., priority 1976, dated 1978)
